Source: US9463330B2, “Delivery of skin care products” (INTERNATIONAL SCIENTIFIC PTY LTD, priority 2010, dated 2016)

Key:
human epidermis [1] = assay: Time dependent epidermal thickness change by OCT after Urea, two magnetic array types vs passive (Example 2); format: in vivo; conditions: for increase in epidermal thickness: passive regions
Source text: In a further in vivo experience, two examples of arrays comprising pairs of displaced magnetic dipolar elements of the present invention were studied to illustrate the essential requirement for the pairs of displaced magnetic dipolar elements to be correctly configured to the diamagnetic property of the active ingredient to be delivered, in addition to the dielectric properties of the target receptor barrier.
Urea was applied to skin in a similar manner to Example 1. The urea and occlusive dressings were removed at 10 minute time periods to take measurements using OTC, with the urea and occlusive dressing being immediately replaced after each set of measurements. Each site was imaged in triplicate for each time point (i.e. three sites, triplicate images, seven time points). The laser images were then analysed to determine the differential change in skin morphology in response to the penetration of urea into facial skin under the influence of two different configurations of the present invention. FIG. 12 summaries this experiment, with the thickness of the epidermis provided next to the image.
Magnetic array Type ETP000 is a magnetic array in which a parallel linear array of common pole pairs of 250 gauss peak flux with a centre to centre spatial separation of 2 mm. Magnetic array Type ETP008 is a parallel linear array of common pole pairs of 450 gauss peak flux with a centre to centre spatial separation of 4 mm.

human epidermal tissues = assay: Time dependent epidermal thickness change after 5% Urea gel, four magnetic array configurations vs passive (Example 3); format: in vivo; conditions: 30 and 60 minutes
Method: As a further example, an additional experiment was undertaken to explore the time dependent changes in measured epidermal thickness using four different configurations of the present invention when compared to passive application.
As in previous examples, all test areas of skin were treated using a 5% Urea gel formation and occluded with Parafilm. The urea and occlusive dressings were removed at 30 minutes and 60 minutes to allow measurements to be taken, with the urea and dressing being immediately replaced after the 30 minute test. Four different arrangements of the pairs of displaced magnetic dipolar elements present invention were studied to elucidate the complex relationship between enhanced delivery to human skin and the specific arrangements of the pairs of displaced dipolar elements that make up the present invention.
The four arrangements of pairs of displaced dipolar elements used in this experiment were as follows:
Type ETP000 was a form of the present invention is which a parallel linear array of common pole pairs of 250 gauss peak flux with a centre to centre spatial separation of 2 mm.
Type ETP006 was a combination of two intersecting parallel linear common pole arrays at 90 degrees orientation to each other having a peak magnetic flux of 300 gauss and a spatial separation between pairs of 3.5 mm.
Type ETP008 was a parallel linear array of common pole pairs of 450 gauss peak flux with a centre to centre spatial separation of 4 mm.
Type ETP011 was a combination of two intersecting parallel linear common pole arrays at 90 degrees orientation to each other having a peak magnetic flux of 150 gauss and a spatial separation between pairs of 3 mm.
The segment marked Passive indicted the normal changes in epidermal thickness in response to topical and occluded application of a Urea Gel. This is considered the control.

human epidermis [2] = assay: In vitro diffusion of urea across human epidermal membranes in Franz-type cells (Example 5); format: in vitro ADME; conditions: 5% urea gel
Source text: • 1) 5% w/w urea in VersaBase Gel (PCCA, Huston, Tex.). • 2) 11 mm diameter discs of flexible magnetic array matrix (ETP008) material and “passive” non-magnetic material which are identical to the active materials in all respects except for the presence of the magnetic field. • 3) Passive occlusive material consisting of a polymer film of similar thickness and cut to the same dimensions as the active magnetic polymer material. • 4) Epidermal membranes obtained from human skin sourced from abdominal region following abdominoplasty surgery. • 5) Pyrex glass Franz-type diffusion cells (enabling permeation across epidermal membranes of cross sectional area approximately 1.18 cm^2); receptor volume approximately 3.5 mL. • 6) Phosphate buffered saline (PBS). • 7) Thermostatted water bath with magnetic stirring capability. • 8) DMAB reagent (4% w/v) prepared with conc. sulphuric acid (4% v/v) in alcohol (95%). • 9) Digital portable LCR meter (TH2821/A/B, Changzhou Tonghui Electronic Co., Ltd, China). Method Preparation of Epidermal Membranes
Epidermal membranes were obtained by the heat separation method (Kligman & Christophers, 1963 Preparation of isolated sheets of human stratum corneum. Arch. Dermatol. 88: 70-73).
• 1) The membrane was placed between the donor and receptor compartment of the cell and allowed to equilibrate for 1 h with PBS in the receptor compartment which was stirred continuously with a magnetic stirrer. • 2) PBS was placed in the donor (1 mL) and receptor (approx. 3.5 mL) compartments of the cell which were then placed in a water bath maintained at 37±0.5° C. • 3) Epidermal membrane integrity was determined by visual inspection over a bright light and electrical resistance (kΩ) measurements using a digital portable LCR meter (TH2821/A/B, Changzhou Tonghui Electronic Co., Ltd, China). The measurements were taken by immersing the stainless steel probe lead tips, one each in the donor and receptor compartments (Fasano et al, 2002 Rapid integrity assessment of rat and human epidermal membranes for in vitro dermal regulatory testing: correlation of electrical resistance with tritiated water permeability. Toxicol. In Vitro 16: 731-40). […] Spectroscopic Analyses:
Urea quantification was based on the analytical method of Knorst et al 1997 (Analytical methods for measuring urea in pharmaceutical formulations. J. Pharm. Biomed. Anal. 15: 1627-32), a modified derivatisation by p-dimethylaminobenzaldehyde (DMAB) to convert urea into a coloured compound.
Derivatisation of urea in skin diffusate employed equal volumes of sample solution and the DMAB reagent (4% w/v) which was prepared with conc. sulphuric acid (4% v/v) in alcohol (95%). In this case 200 μL of the urea sample was mixed with 200 μL of the DMAB reagent. After 10 min the absorbance of the coloured derivatised solution was measured at 420 nm using a UVmini-1240 UV-Vis spectrophotometer (Shimadzu Scientific Instruments) against an appropriate reagent blank (receptor solution processed as for skin permeation receptor solution samples). Spectrophotometric analysis was carried out for quantitative analysis of urea that permeated the skin. […] The limit of detection (LOD) and limit of quantitation (LOQ) of the assay were 0.83 and 2.5 μg/mL respectively.
The results were compiled from nine cells containing the magnetic array film and eight control cells containing the passive non-magnetic film. A comparison of the cumulative amount of urea penetrating the epidermis to the receptor solution (μg/cm^2) versus time (mins) was plotted for passive and magnetic array enhanced applications (FIG. 16).

human skin = assay: Delivery of Curcumin into human skin by Multi-Photon Microscopy (Example 4); format: in vivo; conditions: 0.5% w/w in mineral oil, one hour, volar forearm
Source text: • 1) Mineral oil and a solution of Curcumin in mineral oil (0.5% w/w). • 2) 35 mm×35 mm segments of ETP008 and ETP012 magnetic materials; ETP008 being a parallel linear array of common pole pairs of 450 gauss peak flux with a centre to centre spatial separation of 4 mm; ETP012 being an oriented displaced dipolar magnetic element array created by drawing a secondary flux pattern over a linear pattern comprising 2.0 mm poles, creating a pair of displaced dipolar magnetic elements of pitch of 2.5 pairs per centimeter, with the inter-pair flux gradient being 700 gauss or 1750 gauss per centimeter and the secondary field elements being oriented at 90 degrees to the primary and consisting of parallel pairs of displaced dipolar magnetic elements of pitch of 1.5 mm, creating 3.5 pairs per centimeter, with 300 gauss per centimeter oriented flux. • 3) 35 mm×35 mm segments of a “passive” non-magnetic material which is identical to the active materials in all respects except for the presence of the magnetic field. • 4) Six healthy human subjects between the ages of 20 and 40. • 5) Multi-Photon Microscopy apparatus and computer software capable of processing Multi-Photon microscopy images. […]

Row | mean cumulative permeation over 2 h (human epidermis [2]; magnetic array material ETP008, mean±sem) | lag time (human epidermis [2]; magnetic film array ETP008) | steady state flux (human epidermis [2]; magnetic film array ETP008) | lag time (human epidermis [2]; non-magnetic passive material) | steady state flux (human epidermis [2]; non-magnetic passive material) | mean cumulative permeation over 2 h (human epidermis [2]; non-magnetic passive material, mean±sem) | Curcumin concentrations in the skin compared with passive material (human skin; ETP008 magnetic material) | Curcumin concentrations in the skin compared with passive material (human skin; ETP012 magnetic material) | Structure (SMILES) | epidermal thickness change (human epidermis [1]; Magnetic array Type ETP000, 30 minutes) | epidermal thickness change (human epidermis [1]; Magnetic array Type ETP000, 60 minutes) | epidermal thickness change (human epidermis [1]; Magnetic array Type ETP008, 30 minutes) | epidermal thickness change (human epidermis [1]; Magnetic array Type ETP008, 60 minutes) | increase in epidermal thickness (human epidermis [1]; 30 minutes) | increase in epidermal thickness (human epidermis [1]; 60 minutes) | penetration (changes in epidermal thickness) compared to passive (human epidermal tissues; Type 011 arrangement, 5% Urea gel) | penetration (changes in epidermal thickness) compared to passive (human epidermal tissues; Type ETP000, 5% Urea gel) | penetration (changes in epidermal thickness) compared to passive (human epidermal tissues; Type ETP006, 5% Urea gel) | penetration (changes in epidermal thickness) compared to passive (human epidermal tissues; Type ETP008, 5% Urea gel)
1 | 89.54±7.34 μg/cm^2 | 21.13 ± 6.27 min | 0.75±0.06 μg/cm^2·min | 40.58 ± 3.98 min | 0.24±0.03 μg/cm^2·min | 20.83±2.02 μg/cm^2 | – | – | NC(N)=O [Urea] | 119.5% | 113.25% | 112.6% | 118% | 103.2% | 110% | decreasing normal penetration | enhanced penetrations to different degrees over time | enhanced penetrations to different degrees over time | enhanced penetrations to different degrees over time
2 | – | – | – | – | – | – | significant increase | significant increase | COc1cc(/C=C/C(=O)CC(=O)/C=C/c2ccc(O)c(OC)c2)ccc1O [Curcumin] | – | – | – | – | – | – | – | – | – | –
